Experimental data from ChEMBL document CHEMBL1201862, “PubChem BioAssay data set” (2004).
Active and inactive are the calls of the source.

Tests used:
Interleukin-8 [1] = biological target: T1, Interleukin-8 (Homo sapiens, UniProt P10145); assay: Dose Response confirmation of uHTS small molecule hits for cystic fibrosis induced NFkb Inhibitors in a TNFa-induced IL8 counterscreen.; format: functional; conditions: read-out: IC50_Mean
T1 sequence (P10145 whole entry): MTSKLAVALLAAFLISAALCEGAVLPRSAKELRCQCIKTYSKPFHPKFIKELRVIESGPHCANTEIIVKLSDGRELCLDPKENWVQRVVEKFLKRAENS

Interleukin-8 [2] = biological target: T1, Interleukin-8; assay: Dose Response confirmation of uHTS small molecule hits for cystic fibrosis induced NFkb Inhibitors in a PAF-induced IL8 counterscreen.; format: functional; conditions: read-out: IC50_Mean
[3] = cytotoxicity toward NIH3T3 fibroblasts, dose response, counter-screen, cell-based, ATP luminescence, mouse fibroblasts (AID 2010); format: functional;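 further: cells exposed to compound for about 90 hours before reading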
Protein RecA = biological target: T2, Protein RecA (Mycobacterium tuberculosis, UniProt P9WHJ3); assay: Fluorescence Cell-Free Homogeneous Dose Retest to Identify Inhibitors of RecA-Intein Splicing Activity. [Related pubchem assays (depositor defined):AID2097, AID2223, AID489010, AID492950]; format: functional
T2 sequence (P9WHJ3 whole entry): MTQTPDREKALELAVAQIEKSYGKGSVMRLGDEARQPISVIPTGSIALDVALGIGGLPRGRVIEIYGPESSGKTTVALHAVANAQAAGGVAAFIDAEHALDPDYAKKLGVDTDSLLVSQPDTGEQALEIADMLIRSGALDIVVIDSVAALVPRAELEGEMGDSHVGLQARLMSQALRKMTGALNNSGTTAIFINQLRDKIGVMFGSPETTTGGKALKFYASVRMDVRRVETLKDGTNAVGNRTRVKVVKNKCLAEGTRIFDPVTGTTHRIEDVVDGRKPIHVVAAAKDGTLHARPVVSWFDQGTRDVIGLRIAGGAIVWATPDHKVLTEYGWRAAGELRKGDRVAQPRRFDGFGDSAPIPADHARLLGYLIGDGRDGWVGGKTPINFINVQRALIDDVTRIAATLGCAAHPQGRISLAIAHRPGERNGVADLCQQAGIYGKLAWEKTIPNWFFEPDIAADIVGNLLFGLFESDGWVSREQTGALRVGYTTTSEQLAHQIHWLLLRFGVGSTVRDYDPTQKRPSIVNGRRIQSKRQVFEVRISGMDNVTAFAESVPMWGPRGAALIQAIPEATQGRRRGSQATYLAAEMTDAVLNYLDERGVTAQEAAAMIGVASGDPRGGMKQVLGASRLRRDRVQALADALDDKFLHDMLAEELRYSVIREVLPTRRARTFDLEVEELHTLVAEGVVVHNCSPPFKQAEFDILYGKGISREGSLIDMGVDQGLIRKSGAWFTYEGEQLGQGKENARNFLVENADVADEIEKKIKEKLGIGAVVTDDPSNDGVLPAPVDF

Fatty acid synthase [4] = biological target: T3, Fatty acid synthase (Homo sapiens, UniProt P49327); assay: FAS thioesterase domain inhibitors, dose response, biochemical, endpoint fluorescence intensity, uHTS hits (AID 624327); format: functional;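 further: fluorescence from hydrolysis of an O-methyl fluorescein acyl ester substrate by the enzyme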
T3 sequence (P49327 whole entry, the tested form may be a part): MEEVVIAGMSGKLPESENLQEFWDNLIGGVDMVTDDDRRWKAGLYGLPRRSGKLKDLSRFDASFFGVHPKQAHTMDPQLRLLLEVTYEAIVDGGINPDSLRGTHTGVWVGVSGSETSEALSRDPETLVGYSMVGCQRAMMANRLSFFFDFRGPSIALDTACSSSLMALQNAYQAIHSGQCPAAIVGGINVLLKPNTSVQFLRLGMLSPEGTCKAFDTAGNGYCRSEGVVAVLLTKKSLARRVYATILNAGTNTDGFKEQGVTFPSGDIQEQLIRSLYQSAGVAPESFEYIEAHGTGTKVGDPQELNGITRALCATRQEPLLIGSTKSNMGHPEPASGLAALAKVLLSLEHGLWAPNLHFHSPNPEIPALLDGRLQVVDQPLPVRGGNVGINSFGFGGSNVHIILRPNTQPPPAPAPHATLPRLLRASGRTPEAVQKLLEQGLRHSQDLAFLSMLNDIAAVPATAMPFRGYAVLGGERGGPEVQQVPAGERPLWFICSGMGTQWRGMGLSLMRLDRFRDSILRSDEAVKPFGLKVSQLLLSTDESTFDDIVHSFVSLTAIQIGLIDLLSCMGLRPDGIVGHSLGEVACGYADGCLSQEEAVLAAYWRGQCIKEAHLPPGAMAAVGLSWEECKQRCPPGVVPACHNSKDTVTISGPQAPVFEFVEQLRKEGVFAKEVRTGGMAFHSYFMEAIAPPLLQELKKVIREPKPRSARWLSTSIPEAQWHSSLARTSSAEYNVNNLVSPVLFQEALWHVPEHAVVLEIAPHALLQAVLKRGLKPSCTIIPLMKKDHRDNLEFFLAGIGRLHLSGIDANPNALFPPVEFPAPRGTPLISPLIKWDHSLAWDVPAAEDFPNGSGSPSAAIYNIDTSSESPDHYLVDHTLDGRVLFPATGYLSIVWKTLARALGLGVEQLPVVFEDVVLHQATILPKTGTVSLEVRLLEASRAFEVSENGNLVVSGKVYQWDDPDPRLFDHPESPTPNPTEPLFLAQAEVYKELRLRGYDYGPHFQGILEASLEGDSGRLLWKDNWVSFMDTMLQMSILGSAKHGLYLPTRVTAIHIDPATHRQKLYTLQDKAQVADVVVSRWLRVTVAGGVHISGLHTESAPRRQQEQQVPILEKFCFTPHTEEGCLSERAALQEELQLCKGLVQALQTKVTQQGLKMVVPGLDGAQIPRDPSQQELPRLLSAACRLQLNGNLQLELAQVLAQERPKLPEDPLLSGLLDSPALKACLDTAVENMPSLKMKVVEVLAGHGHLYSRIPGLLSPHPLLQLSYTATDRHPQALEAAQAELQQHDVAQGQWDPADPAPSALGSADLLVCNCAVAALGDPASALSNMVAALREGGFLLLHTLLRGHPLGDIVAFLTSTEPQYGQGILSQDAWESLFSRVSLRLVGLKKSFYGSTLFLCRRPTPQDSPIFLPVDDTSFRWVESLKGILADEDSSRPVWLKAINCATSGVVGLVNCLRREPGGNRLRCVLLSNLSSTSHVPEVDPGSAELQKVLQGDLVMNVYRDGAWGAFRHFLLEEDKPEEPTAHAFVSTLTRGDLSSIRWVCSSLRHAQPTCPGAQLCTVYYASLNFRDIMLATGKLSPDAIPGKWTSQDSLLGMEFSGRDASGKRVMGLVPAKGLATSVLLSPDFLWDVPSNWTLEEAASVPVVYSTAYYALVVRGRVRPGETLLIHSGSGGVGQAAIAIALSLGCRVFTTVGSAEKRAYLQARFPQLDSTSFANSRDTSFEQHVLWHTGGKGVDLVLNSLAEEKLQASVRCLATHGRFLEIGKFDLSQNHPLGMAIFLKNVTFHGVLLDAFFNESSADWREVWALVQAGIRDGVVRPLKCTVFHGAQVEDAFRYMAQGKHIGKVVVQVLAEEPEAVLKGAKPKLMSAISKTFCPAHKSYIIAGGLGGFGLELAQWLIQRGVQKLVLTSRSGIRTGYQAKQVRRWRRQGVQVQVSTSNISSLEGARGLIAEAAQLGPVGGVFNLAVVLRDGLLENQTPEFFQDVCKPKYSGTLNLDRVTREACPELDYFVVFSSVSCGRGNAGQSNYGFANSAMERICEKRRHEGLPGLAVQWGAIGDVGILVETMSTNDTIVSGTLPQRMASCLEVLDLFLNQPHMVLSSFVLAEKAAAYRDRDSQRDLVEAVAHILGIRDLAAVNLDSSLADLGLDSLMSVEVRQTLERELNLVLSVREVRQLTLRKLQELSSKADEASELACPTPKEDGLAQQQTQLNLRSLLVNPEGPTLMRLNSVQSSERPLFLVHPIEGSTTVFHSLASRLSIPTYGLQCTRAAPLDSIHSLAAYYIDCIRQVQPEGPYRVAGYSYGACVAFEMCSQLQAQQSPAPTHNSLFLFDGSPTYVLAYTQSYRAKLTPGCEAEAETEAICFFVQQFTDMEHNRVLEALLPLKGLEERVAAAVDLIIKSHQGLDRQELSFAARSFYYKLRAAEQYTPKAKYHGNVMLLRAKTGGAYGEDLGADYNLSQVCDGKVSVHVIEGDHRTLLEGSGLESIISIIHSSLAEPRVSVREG

CHO = assay: cytotoxicity in TLR9-MyD88 CHO cells, dose response, cytotoxicity control for TLR9-MyD88 binding inhibitor project, cell-based, luminescence (AID 588339); format: functional, hamster; conditions: Cricetulus griseus;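 further: CHO cells stably coexpressing TLR9 and MyD88 fusions from primary screen; compound exposure lasted 48 hours before viability readout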
[5] = Luminescence Cell-Based Dose Response HTS to Identify Inhibitors of 5'UTR Stem-Loop Driven Prion Protein mRNA Translation in H4 Neuroglioblastoma Cells. [Related pubchem assays: 1827 (Project Summary), 1813 (Primary HTS)]; format: functional
Fatty acid synthase [6] = biological target: T3, Fatty acid synthase; assay: FAS thioesterase domain inhibitors, dose response, biochemical, kinetic fluorescence intensity (AID 624326); format: functional;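 further: rate of fluorescence rise from hydrolysis of a fluorogenic O-methyl fluorescein ester substrate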
Beta Lactamase = Beta Lactamase (Pseudomonas aeruginosa, UniProt Q932Y6); assay: beta-lactamase reporter inhibitor potency, dose response, artefact control for TLR9-MyD88 binding inhibitor project, BLA reporter cells, FRET fluorescence (AID 588341); format: cell-based;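 further: cell based assay in CHO-K1 cells stably expressing beta-lactamase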
HeLa = assay: Cytotoxicity counterscreen assay for transcriptional activators of heat shock protein 70 (Hsp70). [Related pubchem assays: 1203, 1252 ]; format: functional; conditions: Homo sapiens
[7] = inhibitors of firefly luciferase expression or activity, dose response, H4 neuroglioma cells, luminescence (AID 1990); format: functional, cell-based
[8] = inhibitors of SNCA 5'UTR-driven reporter translation, confirmation, H4 neuroglioma cells, luminescence (AID 1988); format: functional, cell-based
[9] = inhibitors of intracellular T. cruzi replication, confirmation, NIH3T3 host cells, beta-gal luminescence (AID 2044); format: functional, cell-based;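 further: intracellular parasites grown in NIH/3T3 mouse fibroblasts as host cells; luminescent beta-galactosidase reporter signal from transgenic T. cruzi replicating inside host cells; inhibitors lower the luminescence signal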
[10] = biological target: T4, Replicative DNA helicase DnaB (Mycobacterium tuberculosis, UniProt P9WMR3); assay: DnaB intein splicing inhibitors, dose response, biochemical, cell-free fluorescence (AID 449749); format: functional
T4 sequence (P9WMR3 whole entry): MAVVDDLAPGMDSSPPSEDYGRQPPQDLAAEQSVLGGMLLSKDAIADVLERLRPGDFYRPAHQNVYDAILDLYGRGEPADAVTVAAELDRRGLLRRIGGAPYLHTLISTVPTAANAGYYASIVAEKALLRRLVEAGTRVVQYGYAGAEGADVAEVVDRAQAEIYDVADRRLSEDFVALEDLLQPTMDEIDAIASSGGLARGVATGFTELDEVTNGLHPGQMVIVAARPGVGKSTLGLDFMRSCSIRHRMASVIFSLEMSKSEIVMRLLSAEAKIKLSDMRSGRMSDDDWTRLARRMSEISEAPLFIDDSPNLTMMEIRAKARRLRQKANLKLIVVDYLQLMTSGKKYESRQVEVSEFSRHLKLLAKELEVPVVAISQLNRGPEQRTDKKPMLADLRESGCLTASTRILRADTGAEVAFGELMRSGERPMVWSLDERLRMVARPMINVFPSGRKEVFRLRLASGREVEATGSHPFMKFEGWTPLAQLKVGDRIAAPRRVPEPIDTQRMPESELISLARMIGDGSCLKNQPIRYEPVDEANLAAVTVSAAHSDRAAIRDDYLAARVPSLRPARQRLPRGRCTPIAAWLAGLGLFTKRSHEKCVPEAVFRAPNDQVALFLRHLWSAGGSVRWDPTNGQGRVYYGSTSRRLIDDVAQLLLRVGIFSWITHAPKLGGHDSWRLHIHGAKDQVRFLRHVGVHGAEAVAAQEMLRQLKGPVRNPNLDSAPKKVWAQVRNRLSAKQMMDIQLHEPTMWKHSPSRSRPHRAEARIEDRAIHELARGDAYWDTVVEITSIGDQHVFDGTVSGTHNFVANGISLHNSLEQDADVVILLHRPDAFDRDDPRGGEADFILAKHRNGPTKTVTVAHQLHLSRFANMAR

[11] = biological target: Leukocyte tyrosine kinase receptor (Homo sapiens, UniProt P29376); assay: Navigating the Kinome. Panel member name: LTK; format: functional
[12] = biological target: Protein kinase C theta type (Homo sapiens, UniProt Q04759); assay: Navigating the Kinome. Panel member name: PRKCQ; format: functional
[13] = biological target: Insulin-like growth factor 1 receptor (Homo sapiens, UniProt P08069); assay: Navigating the Kinome. Panel member name: IGF1R; format: functional
Insulin-like growth factor 1 receptor, sequence (P08069 31-736 limits assumed): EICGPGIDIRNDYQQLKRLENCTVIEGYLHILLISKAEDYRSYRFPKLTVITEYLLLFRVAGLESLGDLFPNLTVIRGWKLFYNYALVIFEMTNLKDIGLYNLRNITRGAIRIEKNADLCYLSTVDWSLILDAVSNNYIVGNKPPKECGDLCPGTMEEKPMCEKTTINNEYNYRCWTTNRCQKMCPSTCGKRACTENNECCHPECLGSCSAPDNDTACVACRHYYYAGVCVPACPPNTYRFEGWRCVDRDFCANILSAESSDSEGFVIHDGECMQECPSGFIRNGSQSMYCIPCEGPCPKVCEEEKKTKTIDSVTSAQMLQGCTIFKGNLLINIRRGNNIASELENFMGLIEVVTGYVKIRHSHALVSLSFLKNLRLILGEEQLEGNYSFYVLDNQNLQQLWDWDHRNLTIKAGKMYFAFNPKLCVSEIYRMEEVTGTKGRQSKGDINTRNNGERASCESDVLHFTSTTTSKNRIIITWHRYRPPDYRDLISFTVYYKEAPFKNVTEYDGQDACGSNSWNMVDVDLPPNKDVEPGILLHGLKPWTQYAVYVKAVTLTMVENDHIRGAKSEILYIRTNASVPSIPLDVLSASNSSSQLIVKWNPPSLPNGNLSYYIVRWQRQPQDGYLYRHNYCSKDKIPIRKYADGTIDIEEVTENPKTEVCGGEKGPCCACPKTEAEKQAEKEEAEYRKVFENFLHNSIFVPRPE
Insulin-like growth factor 1 receptor, sequence (P08069 741-1367 limits assumed): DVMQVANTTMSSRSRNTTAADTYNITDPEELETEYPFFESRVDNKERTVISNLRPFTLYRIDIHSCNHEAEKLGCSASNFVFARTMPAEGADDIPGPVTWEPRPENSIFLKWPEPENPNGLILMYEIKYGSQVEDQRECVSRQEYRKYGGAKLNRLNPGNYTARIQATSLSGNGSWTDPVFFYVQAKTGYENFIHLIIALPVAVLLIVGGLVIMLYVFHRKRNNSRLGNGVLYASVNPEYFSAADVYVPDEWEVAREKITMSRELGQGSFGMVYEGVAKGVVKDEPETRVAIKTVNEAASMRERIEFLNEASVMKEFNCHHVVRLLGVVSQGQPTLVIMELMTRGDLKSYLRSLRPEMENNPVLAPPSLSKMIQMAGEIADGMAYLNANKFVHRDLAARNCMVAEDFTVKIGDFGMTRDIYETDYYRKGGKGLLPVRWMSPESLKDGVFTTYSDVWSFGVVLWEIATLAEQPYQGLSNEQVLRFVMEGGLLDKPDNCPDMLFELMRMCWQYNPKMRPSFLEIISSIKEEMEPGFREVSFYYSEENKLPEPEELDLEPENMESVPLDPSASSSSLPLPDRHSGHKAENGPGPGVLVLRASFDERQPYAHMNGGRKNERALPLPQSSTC

Activated CDC42 kinase 1 = Activated CDC42 kinase 1 (Homo sapiens, UniProt Q07912); assay: Navigating the Kinome. Panel member name: ACK1; format: functional
[14] = biological target: Dual specificity protein kinase CLK4 (Homo sapiens, UniProt Q9HAZ1); format: functional
[15] = biological target: T5, cAMP-dependent protein kinase catalytic subunit PRKX (Homo sapiens, UniProt P51817); format: functional
T5 sequence (P51817 whole entry): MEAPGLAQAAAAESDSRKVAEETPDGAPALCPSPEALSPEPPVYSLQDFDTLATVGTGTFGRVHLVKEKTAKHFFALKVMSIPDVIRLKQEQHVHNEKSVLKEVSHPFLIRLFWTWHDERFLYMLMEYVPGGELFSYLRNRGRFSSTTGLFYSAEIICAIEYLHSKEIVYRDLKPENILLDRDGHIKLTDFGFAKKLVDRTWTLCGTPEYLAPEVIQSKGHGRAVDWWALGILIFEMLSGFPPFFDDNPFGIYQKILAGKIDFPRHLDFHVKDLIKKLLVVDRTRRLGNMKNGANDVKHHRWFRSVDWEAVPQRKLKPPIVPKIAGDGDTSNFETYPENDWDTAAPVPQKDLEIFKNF

[16] = biological target: Dual specificity mitogen-activated protein kinase kinase 2 (Homo sapiens, UniProt P36507); assay: Navigating the Kinome. Panel member name: MAP2K2; format: functional
[17] = biological target: Mitogen-activated protein kinase 9 (Homo sapiens, UniProt P45984); format: functional;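 further: value from a kinome panel profiling assay, MAPK9 panel entry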
Mitogen-activated protein kinase 9, sequence (P45984 whole entry): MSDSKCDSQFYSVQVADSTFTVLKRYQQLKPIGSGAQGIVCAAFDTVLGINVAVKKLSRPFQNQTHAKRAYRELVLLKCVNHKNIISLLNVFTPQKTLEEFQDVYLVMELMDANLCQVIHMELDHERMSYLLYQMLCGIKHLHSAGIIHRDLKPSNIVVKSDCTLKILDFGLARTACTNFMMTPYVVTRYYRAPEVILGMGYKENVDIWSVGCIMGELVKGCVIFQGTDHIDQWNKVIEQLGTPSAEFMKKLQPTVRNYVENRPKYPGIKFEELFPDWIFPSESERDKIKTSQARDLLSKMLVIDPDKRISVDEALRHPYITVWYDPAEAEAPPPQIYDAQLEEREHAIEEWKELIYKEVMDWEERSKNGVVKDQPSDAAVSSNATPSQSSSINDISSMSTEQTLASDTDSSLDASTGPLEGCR

[18] = biological target: High affinity nerve growth factor receptor (Homo sapiens, UniProt P04629); format: functional;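 further: NTRK1 tested as one member of a kinome-wide profiling panel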
[19] = biological target: Ribosomal protein S6 kinase alpha-3 (Homo sapiens, UniProt P51812); format: functional;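 further: measured within a kinome-wide profiling panel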
[20] = biological target: Fibroblast growth factor receptor 1 (Homo sapiens, UniProt P11362); format: functional
Fibroblast growth factor receptor 1, sequence (P11362 whole entry): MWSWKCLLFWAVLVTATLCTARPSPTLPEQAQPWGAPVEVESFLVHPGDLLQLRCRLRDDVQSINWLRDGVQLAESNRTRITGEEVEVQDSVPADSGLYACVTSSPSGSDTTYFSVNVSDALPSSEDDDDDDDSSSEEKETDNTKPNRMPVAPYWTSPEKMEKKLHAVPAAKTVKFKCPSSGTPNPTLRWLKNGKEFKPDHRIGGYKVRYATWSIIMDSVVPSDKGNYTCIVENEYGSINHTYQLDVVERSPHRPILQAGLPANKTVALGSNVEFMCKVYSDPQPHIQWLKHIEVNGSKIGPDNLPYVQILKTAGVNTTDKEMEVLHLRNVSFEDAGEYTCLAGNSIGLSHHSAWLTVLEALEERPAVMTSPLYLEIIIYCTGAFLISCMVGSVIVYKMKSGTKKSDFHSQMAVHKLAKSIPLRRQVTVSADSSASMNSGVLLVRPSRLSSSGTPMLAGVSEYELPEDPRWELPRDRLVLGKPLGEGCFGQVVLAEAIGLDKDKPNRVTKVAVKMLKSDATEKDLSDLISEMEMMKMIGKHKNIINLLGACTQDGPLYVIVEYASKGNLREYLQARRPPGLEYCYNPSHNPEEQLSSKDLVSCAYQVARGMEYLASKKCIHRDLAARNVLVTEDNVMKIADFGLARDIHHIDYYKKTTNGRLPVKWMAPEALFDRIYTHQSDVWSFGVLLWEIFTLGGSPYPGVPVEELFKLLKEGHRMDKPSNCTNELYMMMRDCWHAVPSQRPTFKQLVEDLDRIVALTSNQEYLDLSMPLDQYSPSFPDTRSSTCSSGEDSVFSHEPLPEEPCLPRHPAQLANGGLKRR

[21] = biological target: Platelet-activating factor acetylhydrolase (Mus musculus, UniProt Q60963); assay: Late stage assay provider results from the probe development effort to identify inhibitors of pPAFAH: fluorescence-based dose-response biochemical gel-based competitive Activity-Based Protein Profiling (ABPP) assay for SAR compounds.; format: functional
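Wherever CC50 is given: cells exposed to compound for 16 hours before readout.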

## Nc1nccc(SCc2ccc(Cl)cc2Cl)n1
Interleukin-8 [1]
  IC50: > 79 µM (inactive)
Interleukin-8 [2]
  IC50: 6.67 µM (active)

## O=Cc1s/c(=N\S(=O)(=O)c2ccccc2)n(CCCCl)c1Cl
[3]
  EC50: 2.82 µM (active)
Protein RecA
  EC50: 34.9 µM (active)
Fatty acid synthase [4]
  IC50: 6.11 µM (active)
CHO
  IC50: 1.03 µM (active)
[5]
  EC50: > 120 µM (not active)
Fatty acid synthase [6]
  IC50: 3.15 µM (active)
Beta Lactamase
  IC50: 19.5 µM (inactive)
HeLa
  CC50: > 3.67 µM (not active)
[7]
  EC50: > 60 µM (not active)
[8]
  EC50: 9.57 µM (active)
[9]
  EC50: 1.39 µM (active)
[10]
  AC50: 4.19 µM (active)

## Nc1nccc2nc(-c3ccccc3)cn12
[11]
  Ki: 50.1 µM (active)
[12]
  Ki: 50.1 µM (active)
[13]
  Ki: 39.8 µM (active)
Activated CDC42 kinase 1
  Ki: 15.8 µM (active)
[14]
  Ki: 79.4 µM (active)
[15]
  Ki: 79.4 µM (active)
[16]
  Ki: 79.4 µM (active)
[17]
  Ki: 100 µM (active)
[18]
  Ki: 31.6 µM (active)
[19]
  Ki: 50.1 µM (active)
[20]
  Ki: 79.4 µM (active)

## Cc1cc(N2CCN(C(=O)Oc3ccc(-c4ccccc4)cc3)CC2)c2ccccc2n1
[21]
  IC50: 0.091 µM (active)
